Legend:
Format in all cases: functional
[1] = test system: Escherichia coli; assay: Antibacterial activity against Escherichia coli NCIM 2803 at 20 ug/ml after 24 hr by agar diffusion method; settings: NCIM 2803, 24 h, read-out: IZ
[2] = test system: Bacillus subtilis; assay: Antibacterial activity against Bacillus subtilis NCIM 2545 at 20 ug/ml after 24 hr by agar diffusion method; settings: NCIM 2545, 24 h, read-out: IZ
[3] = test system: Staphylococcus aureus; assay: Antibacterial activity against Staphylococcus aureus NCIM 5021 at 20 ug/ml after 24 hr by agar diffusion method; settings: NCIM 5021, 24 h, read-out: IZ
[4] = test system: Staphylococcus epidermidis; assay: Antibacterial activity against Staphylococcus epidermidis NCIM 2493 at 20 ug/ml after 24 hr by agar diffusion method; settings: NCIM 2493, 24 h, read-out: IZ
[5] = test system: G-361; assay: Cytotoxicity against Homo sapiens (human) G361 cells assessed as cell growth at 10^-7 M by SRB assay relative to control; settings: read-out: Activity
[6] = test system: G-361; assay: Cytotoxicity against Homo sapiens (human) G361 cells assessed as cell growth at 10^-6 M by SRB assay relative to control; settings: read-out: Activity
[7] = test system: G-361; assay: Cytotoxicity against Homo sapiens (human) G361 cells assessed as cell growth at 10^-5 M by SRB assay relative to control; settings: read-out: Activity
[8] = test system: G-361; assay: Cytotoxicity against Homo sapiens (human) G361 cells assessed as cell growth at 10^-4 M by SRB assay relative to control; settings: read-out: Activity
[9] = test system: G-361; assay: Cytotoxicity against Homo sapiens (human) G361 cells by SRB assay

| SMILES | zone of inhibition at 20 µg/mL [1] [mm] | zone of inhibition at 20 µg/mL [2] [mm] | zone of inhibition at 20 µg/mL [3] [mm] | zone of inhibition at 20 µg/mL [4] [mm] | growth at 0.1 µM [5] [%] | growth at 1 µM [6] [%] | growth at 10 µM [7] [%] | growth at 100 µM [8] [%] | GI50 [9] [µM] | LC50 [9] [µM] | TGI [9] [µM] |
| --- | --- | --- | --- | --- | --- | --- | --- | --- | --- | --- | --- |
| CCc1nc(N2CCOCC2)c2cnn(-c3ccccc3)c2n1 | 13 | 13.3 | 13 | 13 | 100 | 85.5 | 65.9 | 30.9 | 28 | > 100 | > 100 |
| c1ccc(-n2ncc3c(N4CCOCC4)ncnc32)cc1 | 13.3 | 12.8 | 13.6 | 12.7 | 100 | 100 | 100 | 61.5 | > 100 | > 100 | > 100 |
| CCCNc1nc(CC)nc2c1cnn2-c1ccccc1 | 13.6 | 13 | 13.3 | 13.3 | 100 | 94.7 | 84.7 | -34.7 | 2.2 | > 100 | 37 |
| ClCc1nc(Cl)c2cnn(-c3ccccc3)c2n1 | – | – | – | – | 100 | 100 | 90.9 | -59.3 | 2.08 | > 100 | 33.2 |
| CC(C)Nc1ncnc2c1cnn2-c1ccccc1 | 13.3 | 13.3 | 13.6 | 13.6 | – | – | – | – | – | – | – |
| c1ccc(-n2ncc3c(N4CCOCC4)nc(CN4CCOCC4)nc32)cc1 | 13.6 | 13 | 13.6 | 13.3 | 99.7 | 99.6 | 94.3 | 47.6 | > 100 | > 100 | > 100 |
| CC(C)c1nc(Nc2ccccc2)c2cnn(-c3ccccc3)c2n1 | 12.8 | 13.5 | 13.3 | 13.3 | 100 | 100 | 91.9 | 19.2 | 32 | > 100 | > 100 |
| Cc1nc(NCc2ccccc2)c2cnn(-c3ccccc3)c2n1 | 12.6 | 13.3 | 13.1 | 12.7 | 100 | 100 | 100 | 45.5 | > 100 | > 100 | > 100 |
| c1ccc(-n2ncc3c(NCc4ccco4)ncnc32)cc1 | 12.8 | 13.6 | 13 | 13.6 | 100 | 97.5 | 92.3 | 51.7 | > 100 | – | > 100 |
| CCc1nc(NCc2ccco2)c2cnn(-c3ccccc3)c2n1 | 12.7 | 13.6 | 13.3 | 13.6 | 100 | 96.5 | 86.3 | -61 | 2.04 | > 100 | 32 |
| CCCCNc1ncnc2c1cnn2-c1ccccc1 | 13.6 | 13 | 13.3 | 13.3 | 100 | 90.8 | 43.4 | -4.5 | 2.1 | > 100 | 37 |
| CCNCc1nc(NCC)c2cnn(-c3ccccc3)c2n1 | 13.3 | 12.7 | 12.6 | 13.6 | 100 | 100 | 100 | 87.7 | > 100 | > 100 | > 100 |
| Cc1nc(N2CCOCC2)c2cnn(-c3ccccc3)c2n1 | 12.7 | 13.6 | 13.3 | 13.6 | 100 | 100 | 99.8 | 43.9 | > 100 | > 100 | > 100 |
| CCc1nc(NC(C)C)c2cnn(-c3ccccc3)c2n1 | 13.3 | 13.3 | 13.6 | 13.6 | 100 | 96.4 | 83.3 | 40 | 38 | > 100 | > 100 |
| CCCNc1ncnc2c1cnn2-c1ccccc1 | 13.2 | 13.2 | 12.7 | 13.3 | 100 | 100 | 99.7 | 64.8 | > 100 | > 100 | > 100 |
| Cc1nc(Nc2ccccc2)c2cnn(-c3ccccc3)c2n1 | 13.3 | 13.6 | 13.4 | 13.6 | 100 | 100 | 100 | 65.6 | > 100 | > 100 | > 100 |
| CCN(CC)c1nc(C)nc2c1cnn2-c1ccccc1 | 13.6 | 13.1 | 13.7 | 13.3 | 100 | 100 | 100 | 61.8 | > 100 | > 100 | > 100 |
| COc1ccccc1Nc1nc(C)nc2c1cnn2-c1ccccc1 | 13.5 | 13.4 | 13.3 | 13.6 | – | – | – | – | – | – | – |
| COc1cccc2c1C(=O)c1c(O)c3c(c(O)c1C2=O)C[C@@](O)(C(=O)CO)C[C@@H]3O[C@H]1C[C@H](N)[C@H](O)[C@H](C)O1 [DOXORUBICIN] | – | – | – | – | -24 | -62.5 | -64.2 | -70.7 | < 0.1 | – | < 0.1 |
| CCc1nc(Nc2ccccc2)c2cnn(-c3ccccc3)c2n1 | 13.3 | 13.3 | 13.6 | 13.6 | – | – | – | – | – | – | – |
